Measured values taken from PubChem BioAssay (NCI).
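Five concentrations, 48 hours, 96-well plates. TGI denotes the concentration required for complete inhibition of growth.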 Where a SMILES comes first, the peptide text is derived from it. The star is where a group is joined. Fmoc = O=C(OCC1c2ccccc2-c2ccccc21)*; Boc = CC(C)(C)OC(=O)*

Assays:
Test in all cases: DTP human tumour cell line panel, 48 h
TK-10 renal = system: TK-10 renal
K-562 leukemia = system: K-562 leukemia
CAKI-1 renal = system: CAKI-1 renal
SK-MEL-28 melanoma = system: SK-MEL-28 melanoma
HCT-15 colon = system: HCT-15 colon
NCI/ADR-RES ovarian = system: NCI/ADR-RES ovarian
NCI-H23 lung = system: NCI-H23 lung
IGROV1 ovarian = system: IGROV1 ovarian
SK-MEL-5 melanoma = system: SK-MEL-5 melanoma
SF-268 CNS = system: SF-268 CNS

| Structure (SMILES) | TGI (TK-10 renal) | TGI (K-562 leukemia) | TGI (CAKI-1 renal) | TGI (SK-MEL-28 melanoma) | TGI (HCT-15 colon) | TGI (NCI/ADR-RES ovarian) | TGI (NCI-H23 lung) | TGI (IGROV1 ovarian) | TGI (SK-MEL-5 melanoma) | TGI (SF-268 CNS) |
| --- | --- | --- | --- | --- | --- | --- | --- | --- | --- | --- |
| Cc1ccc(C)c(C(=N)c2ccccc2Cc2ccccc2)c1 | > 100 µM | 58.7 µM | > 100 µM | 80.1 µM | > 100 µM | > 100 µM | > 100 µM | > 100 µM | 30.5 µM | 46.2 µM |
| Nc1c(O)c(C(=O)O)cc2ccccc12 | > 100 µM | 85.9 µM | 53.8 µM | > 100 µM | > 100 µM | > 100 µM | 65.3 µM | > 100 µM | 27.9 µM | > 100 µM |
| Cc1cc(C)nc(NS(=O)(=O)c2ccc(NC(=O)c3ccc4nc5ccccc5c(Nc5ccc(S(=O)(=O)Nc6nc(C)cc(C)n6)cc5)c4c3)cc2)n1 | > 100 µM | > 100 µM | > 100 µM | > 100 µM | > 100 µM | > 100 µM | > 100 µM | > 100 µM | > 100 µM | > 100 µM |
| COc1ccccc1NC1=NCC(C)S1 (stereo not given) | > 100 µM | > 100 µM | > 100 µM | > 100 µM | > 100 µM | > 100 µM | > 100 µM | > 100 µM | > 100 µM | > 100 µM |
| Cc1ccc2c(c1)C/C(=C\c1ccccc1C(=O)O)C2=O | > 100 µM | > 100 µM | > 100 µM | > 100 µM | > 100 µM | > 100 µM | > 100 µM | > 100 µM | > 100 µM | > 100 µM |
| CC(=O)NC1=CC(=O)C=C(Cl)C1=O | > 100 µM | 93.6 µM | > 100 µM | > 100 µM | > 100 µM | > 100 µM | > 100 µM | > 100 µM | > 100 µM | > 100 µM |
| CC(=O)Nc1ccc2c3c(cc(O)c2c1)N(C(=O)CCCCCC(=O)Nc1ccc2c4c(cc(O)c2c1)N(C(=O)OC(C)(C)C)CC4CCl)CC3CCl (stereo not given) | > 70.6 µM | > 100 µM | > 100 µM | > 63.2 µM | > 100 µM | > 100 µM | 3.59 µM | 28.5 µM | 2.98 µM | 6.87 µM |
| CC(C)=C=CC(C)(C)NS(=O)(=O)NC(C)(C)C=C=C(C)C | > 100 µM | > 100 µM | > 100 µM | > 100 µM | > 100 µM | > 100 µM | > 100 µM | > 100 µM | > 100 µM | > 100 µM |
| COc1cc(C2S/C(=C/c3ccccc3)C(=O)N2c2ccccn2)cc(OC)c1OC (stereo not given) | > 100 µM | > 100 µM | 52.3 µM | > 74 µM | 36.4 µM | 54 µM | 34 µM | 29.9 µM | 56.6 µM | 36.2 µM |
| CCOC(=O)/C=C1\C[C@H](NC(=O)OCc2ccccc2)C(=O)N1CC(=O)OCC | > 100 µM | > 100 µM | > 100 µM | > 100 µM | > 100 µM | > 100 µM | > 100 µM | > 100 µM | > 100 µM | > 100 µM |
| NNC(=O)CSc1nnc(CCCCCCCCc2nnc(SCC(=O)NN)o2)o1 | > 100 µM | > 100 µM | > 100 µM | > 100 µM | > 100 µM | > 100 µM | > 100 µM | > 100 µM | > 100 µM | > 100 µM |
| COC(=O)C(=O)C(C(=O)C(=O)Nc1nc(=S)[nH][nH]1)c1nc2ccc([N+](=O)[O-])cc2[nH]c1=O (stereo not given) | > 100 µM | > 100 µM | > 100 µM | > 100 µM | > 100 µM | > 100 µM | > 100 µM | > 100 µM | > 100 µM | > 100 µM |
| NC(=O)N=Nc1c2ccccc2n2[nH]ccc12 | > 100 µM | > 100 µM | > 100 µM | > 100 µM | > 100 µM | > 100 µM | > 100 µM | > 100 µM | > 100 µM | > 100 µM |
| CC(C)(C)OC(=O)NCCCCC(NC(=O)C(Cc1c[nH]c2ccccc12)NC(=O)OCC1c2ccccc2-c2ccccc21)C(=O)O (stereo not given) (Fmoc-Trp-Lys(Boc)-OH; configuration not given here) | > 100 µM | 38.5 µM | 31.5 µM | > 100 µM | > 100 µM | > 100 µM | > 100 µM | > 100 µM | > 100 µM | > 100 µM |
| COc1cc(C2SC(N)=Nc3c2c(C)nn3C(=O)c2ccc(Cl)cc2)ccc1O (stereo not given) | > 10 µM | > 10 µM | > 10 µM | > 10 µM | > 10 µM | > 10 µM | > 10 µM | > 10 µM | > 10 µM | > 10 µM |
| COc1ccc(/C=C2\CC3C4CC=C5C[C@@H](O)CC[C@]5(C)C4CC[C@]3(C)C2=O)cc1OC (stereo not given in full) | > 100 µM | > 100 µM | > 100 µM | > 100 µM | > 100 µM | > 100 µM | > 100 µM | > 100 µM | 21.9 µM | > 100 µM |
| CC1(C)N=C(N)N=C(N)N1CCCCc1ccccc1 | > 100 µM | > 100 µM | > 100 µM | > 100 µM | > 100 µM | > 100 µM | > 100 µM | > 100 µM | 12.5 µM | > 100 µM |
| COc1cc2c3c4c1OCc1c5c(cc(c1-4)CC3[N+](C)(C)CC2)OCO5 (stereo not given) | > 100 µM | > 100 µM | > 100 µM | > 100 µM | > 100 µM | > 100 µM | > 100 µM | > 100 µM | > 100 µM | 16.9 µM |
| CC(C)(C)OC(=O)CC(NC(=O)OC(C)(C)C)C(=O)Oc1ccc([N+](=O)[O-])cc1 (stereo not given) | > 100 µM | > 100 µM | > 100 µM | > 100 µM | > 100 µM | > 100 µM | > 100 µM | > 100 µM | > 100 µM | > 100 µM |
